Assay results reported in ChEMBL document CHEMBL5620385, “Orally bioavailable styryl derivative of rohitukine-N-oxide inhibits CDK9/T1 and the growth of pancreatic cancer cells” (Eur J Med Chem, 2023).

Assays:
[1] = biological target: Cyclin-dependent kinase 7/ cyclin H (Homo sapiens) (UniProt P51946+P50613); experiment: Inhibition of CDK7/cyclin H (unknown origin) at 10 uM by ADP-Glo assay relative to control; type: protein-complex assay
[2] = biological target: CDK9/Cyclin K (Homo sapiens) (UniProt P50750+O75909); experiment: Inhibition of CDK9/cyclin K (unknown origin) at 10 uM by ADP-Glo assay relative to control; type: protein-complex assay
HCT-116 [3] = experiment: Antiproliferative activity against human HCT-116 cells assessed as cell growth inhibition at 10 uM incubated for 48 hrs by MTT assay relative to control; type: functional
MIA PaCa-2 [4] = experiment: Antiproliferative activity against human MIA PaCa-2 cells assessed as cell growth inhibition at 10 uM incubated for 48 hrs by MTT assay relative to control; type: functional
[5] = Antiproliferative activity against HEK293 cells assessed as cell growth inhibition at 10 uM incubated for 48 hrs by MTT assay relative to control; type: toxicity, cell-based; settings: human
[6] = biological target: Cyclin-dependent kinase 7/ cyclin H (Homo sapiens, UniProt P50613); experiment: Inhibition of CDK7/cyclin H (unknown origin) by ADP-Glo assay; type: protein-complex assay
Cyclin-dependent kinase 7/ cyclin H, sequence (P51946 whole entry): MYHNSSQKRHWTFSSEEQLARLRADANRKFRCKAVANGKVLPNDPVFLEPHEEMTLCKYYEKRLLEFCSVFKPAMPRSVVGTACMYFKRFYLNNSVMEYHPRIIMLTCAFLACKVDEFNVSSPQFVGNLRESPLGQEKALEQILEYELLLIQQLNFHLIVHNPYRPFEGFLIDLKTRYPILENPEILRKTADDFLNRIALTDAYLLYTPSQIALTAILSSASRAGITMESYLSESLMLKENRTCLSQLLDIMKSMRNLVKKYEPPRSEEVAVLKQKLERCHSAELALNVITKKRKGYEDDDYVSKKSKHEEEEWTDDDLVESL
Cyclin-dependent kinase 7/ cyclin H, sequence (P50613 whole entry): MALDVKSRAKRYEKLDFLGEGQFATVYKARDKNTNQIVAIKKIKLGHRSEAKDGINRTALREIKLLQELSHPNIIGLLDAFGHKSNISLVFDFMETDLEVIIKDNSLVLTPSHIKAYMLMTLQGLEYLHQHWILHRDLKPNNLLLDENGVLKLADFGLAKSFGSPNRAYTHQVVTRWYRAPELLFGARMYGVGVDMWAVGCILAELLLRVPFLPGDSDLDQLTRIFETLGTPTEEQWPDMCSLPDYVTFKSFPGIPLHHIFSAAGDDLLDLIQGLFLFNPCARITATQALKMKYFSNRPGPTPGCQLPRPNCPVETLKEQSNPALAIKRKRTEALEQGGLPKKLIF

CDK9/cyclin T1 = CDK9/cyclin T1 (Homo sapiens, UniProt P50750); experiment: Inhibition of CDK9/cyclin T1 (unknown origin) by ADP-Glo assay; type: protein-complex assay
CDK9/cyclin T1, sequence (O60563 whole entry): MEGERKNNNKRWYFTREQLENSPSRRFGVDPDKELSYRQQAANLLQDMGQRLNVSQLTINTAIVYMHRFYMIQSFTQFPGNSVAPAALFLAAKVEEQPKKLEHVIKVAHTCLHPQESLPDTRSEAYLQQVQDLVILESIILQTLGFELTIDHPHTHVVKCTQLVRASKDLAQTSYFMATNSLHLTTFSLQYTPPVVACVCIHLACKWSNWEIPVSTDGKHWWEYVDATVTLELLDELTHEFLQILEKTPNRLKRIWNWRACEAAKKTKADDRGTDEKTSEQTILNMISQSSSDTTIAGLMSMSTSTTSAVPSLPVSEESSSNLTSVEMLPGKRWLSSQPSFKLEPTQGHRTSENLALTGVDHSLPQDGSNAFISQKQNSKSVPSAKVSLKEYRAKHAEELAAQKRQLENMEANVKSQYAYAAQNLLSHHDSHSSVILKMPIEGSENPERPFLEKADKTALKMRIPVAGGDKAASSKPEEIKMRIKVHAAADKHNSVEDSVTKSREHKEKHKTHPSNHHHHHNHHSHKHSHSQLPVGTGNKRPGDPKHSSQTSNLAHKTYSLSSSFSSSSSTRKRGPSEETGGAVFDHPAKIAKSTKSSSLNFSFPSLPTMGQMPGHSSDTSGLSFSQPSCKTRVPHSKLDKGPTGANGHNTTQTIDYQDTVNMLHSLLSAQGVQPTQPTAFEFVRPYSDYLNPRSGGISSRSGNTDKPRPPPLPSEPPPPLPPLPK
CDK9/cyclin T1, sequence (P50750 whole entry): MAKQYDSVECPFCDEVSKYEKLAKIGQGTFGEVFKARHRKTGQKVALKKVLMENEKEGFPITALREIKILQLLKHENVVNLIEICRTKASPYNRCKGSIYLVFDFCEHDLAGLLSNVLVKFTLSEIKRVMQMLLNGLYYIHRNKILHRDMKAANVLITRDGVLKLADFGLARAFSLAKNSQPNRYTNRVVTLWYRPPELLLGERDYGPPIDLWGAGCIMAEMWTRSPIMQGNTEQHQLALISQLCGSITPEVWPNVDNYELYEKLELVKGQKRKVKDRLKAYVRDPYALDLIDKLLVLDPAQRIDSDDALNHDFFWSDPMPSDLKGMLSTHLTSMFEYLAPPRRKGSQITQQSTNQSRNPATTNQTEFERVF

HCT-116 [7] = experiment: Antiproliferative activity against human HCT-116 cells assessed as cell growth inhibition incubated for 48 hrs by MTT assay; type: functional
MIA PaCa-2 [8] = experiment: Antiproliferative activity against human MIA PaCa-2 cells assessed as cell growth inhibition incubated for 48 hrs by MTT assay; type: functional
[9] = Antiproliferative activity against HEK293 cells assessed as cell growth inhibition incubated for 48 hrs by MTT assay; type: toxicity, cell-based; settings: human
CDK9/Cyclin K = CDK9/Cyclin K (Homo sapiens, UniProt P50750); experiment: Inhibition of CDK9/cyclin K (unknown origin) by ADP-Glo assay; type: protein-complex assay
CDK9/Cyclin K, sequence (P50750 whole entry): as above
CDK9/Cyclin K, sequence (O75909 whole entry, further chain): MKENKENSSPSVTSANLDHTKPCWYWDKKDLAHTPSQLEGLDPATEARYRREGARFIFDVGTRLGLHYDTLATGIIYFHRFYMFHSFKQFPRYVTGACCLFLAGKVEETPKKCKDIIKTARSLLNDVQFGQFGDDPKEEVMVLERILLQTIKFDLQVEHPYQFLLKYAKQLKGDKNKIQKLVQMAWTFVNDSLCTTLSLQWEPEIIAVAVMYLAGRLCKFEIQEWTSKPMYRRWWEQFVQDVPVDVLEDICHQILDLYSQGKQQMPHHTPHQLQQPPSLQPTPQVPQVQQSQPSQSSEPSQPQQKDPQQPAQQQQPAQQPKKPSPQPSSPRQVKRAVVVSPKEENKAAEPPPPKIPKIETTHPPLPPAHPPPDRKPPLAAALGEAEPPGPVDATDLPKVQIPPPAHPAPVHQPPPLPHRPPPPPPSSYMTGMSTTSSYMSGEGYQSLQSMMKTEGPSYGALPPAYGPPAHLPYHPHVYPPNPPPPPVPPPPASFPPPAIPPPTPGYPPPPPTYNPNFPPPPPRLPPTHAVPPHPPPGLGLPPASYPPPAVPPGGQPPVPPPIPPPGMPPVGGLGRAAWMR

SMILES	inhibition [1]	inhibition [2]	inhibition at 10 µM (HCT-116 [3])	inhibition at 10 µM (MIA PaCa-2 [4])	inhibition at 48 h, 10 µM [5]	IC50 [6]	IC50 (CDK9/cyclin T1)	GI50 (HCT-116 [7])	GI50 (MIA PaCa-2 [8])	GI50 at 48 h [9]	IC50 (CDK9/Cyclin K)
COc1cc(O)c2c(=O)cc(/C=C/c3c(F)ccc(F)c3Cl)oc2c1[C@H]1CC[N+](C)([O-])C[C@H]1O (some centres undefined)	51.4%	41.8%	57.7%	36.4%	20%						
CCOc1cc(O)c2c(=O)cc(/C=C/c3c(F)cccc3Cl)oc2c1[C@H]1CC[N+](C)([O-])C[C@H]1O (some centres undefined)	37.4%		34.7%	52.8%	22.8%	> 10 µM	0.45 µM	> 10 µM	8.03 µM	> 100 µM	
C[N+]1([O-])CC[C@H](c2c(O)cc(O)c3c(=O)cc(/C=C/c4cc(Cl)cc(Cl)c4)oc23)[C@H](O)C1 (some centres undefined)	25.6%	28%	5.7%	11.3%	14.8%						
C[N+]1([O-])CC[C@H](c2c(O)cc(O)c3c(=O)cc(/C=C/c4ccccc4)oc23)[C@H](O)C1 (some centres undefined)	41.7%	44.2%	20.5%	21.5%	8.2%	> 10 µM	1.99 µM	> 10 µM	> 10 µM	> 100 µM	> 10 µM
COc1cc(O)c2c(=O)cc(/C=C/c3ccc(F)c(Cl)c3)oc2c1[C@H]1CC[N+](C)([O-])C[C@H]1O (some centres undefined)	56.7%	28.4%	33.7%	27.8%	6.9%						
C[N+]1([O-])CC[C@H](c2c(O)cc(O)c3c(=O)cc(/C=C/c4c(F)cccc4Cl)oc23)[C@H](O)C1 (some centres undefined)	48.5%		61.7%	56.1%	19.3%	5.14 µM	1.43 µM	4.56 µM	7.05 µM	> 100 µM	
C[N+]1([O-])CC[C@H](c2c(O)cc(O)c3c(=O)cc(/C=C/c4ccccc4Br)oc23)[C@H](O)C1 (some centres undefined)	49.4%	60.2%	36.3%	70.3%	17.2%	1.62 µM	0.231 µM	9.32 µM	5.35 µM	95.2 µM	2.41 µM
C[N+]1([O-])CC[C@H](c2c(O)cc(O)c3c(=O)cc(/C=C/c4ccccc4I)oc23)[C@H](O)C1 (some centres undefined)	89.6%	64.8%	38.3%	38.1%	13.4%						
COc1cc(O)c2c(=O)cc(/C=C/c3c(F)ccc(Cl)c3F)oc2c1[C@H]1CC[N+](C)([O-])C[C@H]1OC (some centres undefined)	50.3%	17%	38.1%	39%	15.5%						
Cc1cc(=O)c2c(O)cc(O)c([C@H]3CC[N+](C)([O-])C[C@H]3O)c2o1 (some centres undefined)	12.8%	37.9%	34%	18.8%	14.3%	> 10 µM	7.65 µM	> 10 µM	> 10 µM	> 100 µM	> 10 µM
C[N+]1([O-])CC[C@H](c2c(O)cc(O)c3c(=O)cc(/C=C/c4c(Cl)cccc4Cl)oc23)[C@H](O)C1 (some centres undefined)	47.5%	65.8%	72.3%	53.6%	24.1%	6.44 µM	0.399 µM	5.44 µM	9.7 µM	> 100 µM	3.44 µM
C[N+]1([O-])CC[C@H](c2c(O)cc(O)c3c(=O)cc(/C=C/c4ccc(Cl)cc4Br)oc23)[C@H](O)C1 (some centres undefined)	65.4%	66.2%	57.1%	58.4%	21.4%						
C[N+]1([O-])CC[C@H](c2c(O)cc(O)c3c(=O)cc(/C=C/c4cccc(Cl)c4)oc23)[C@H](O)C1 (some centres undefined)	19.4%	37.3%	27.4%	36.3%	9.2%	> 10 µM	3.71 µM	> 10 µM	> 10 µM	> 100 µM	> 10 µM
C[N+]1([O-])CC[C@H](c2c(O)cc(O)c3c(=O)cc(/C=C/c4ccccc4F)oc23)[C@H](O)C1 (some centres undefined)	15.9%	58.9%	18.2%	31.8%	18.8%	> 10 µM	0.676 µM	> 10 µM	5.58 µM	> 100 µM	8.47 µM
C[N+]1([O-])CC[C@H](c2c(O)cc(O)c3c(=O)cc(/C=C/c4ccc(Cl)cc4Cl)oc23)[C@H](O)C1 (some centres undefined)	49.6%	43.2%	54%	41.2%	18.2%						
COc1cc(O)c2c(=O)cc(/C=C/c3cccc(Cl)c3F)oc2c1[C@H]1CC[N+](C)([O-])C[C@H]1O (some centres undefined)	47.5%	59.6%	62.1%	52.7%	17.2%						
CN1CC[C@H](c2c(O)cc(O)c3c(=O)cc(/C=C/c4c(Cl)cccc4Cl)oc23)[C@H](O)C1	81.6%	83.6%	49.5%	82.5%	20.6%		0.003 µM	9.32 µM	1.94 µM	> 100 µM	0.32 µM
